Laboratory results from patent US20250288558A1, “THERAPEUTIC FOR SPINAL CORD INJURY TO INDUCE HYPOTHERMIA” (The Trustees of Indiana University, priority 2024, published 2025).
Values joined by “and” are separate entries in the source; they are usually repeats but may differ in a detail not shown here. Identical values can stand only once. Counter-ions that a name gives are not always drawn. Like-named read-outs stand apart in the source and are kept apart here.

Legend:
[1] = system: mice with contusive T9 moderate SCI (IH); conditions: end of BMS test, IH model
Text: The scores ranged from 9 to 0 that represent normal movement to complete paralysis, respectively.

[2] = system: none-injury young adult c57 BL/6 mice
Method: (§1) The effects of different doses of Dex on hypothermia induction in none-injury young adult c57 BL/6 mice was tested. […] Further, we examined the change of Dex induced hypothermia when the routine Avertin (2.5%), a wildly used anesthetic for small animal surgery was applied.

mouse with a SCI [3] = conditions: metabolic cage, n=5
[4] = system: mice with moderate contusive spinal cord injury (SCI) at thoracic 9 (T9)
Method: as §1
(§2) Therefore, we compared the functional outcomes of Dex treated SCI mice with SCI only mice using multiple behavior tests post-trauma. C57 BL/6 wild type mice (female) at age of 8 weeks were randomly assigned into three different groups, including sham, SCI, and SCI+Dex. Then the moderate T9 contusive SCI was introduced in two injury groups using LISA injury model. Mice in sham and SCI only group were put on the heating pad to maintain their normal body temperature, while mice in Dex treated group were exposed in ambient room temperature of 24.5° C. for hypothermia during whole surgery and recovery process. One hour after injury, one dose of Dex (100 μg/kg) was IP administrated to rapidly induce early moderate to modest therapeutic hypothermia (30-32° C.). All mice body temperature were measured by rectal probe every 30 minutes to monitor the hypothermia after surgery till the mice fully waked up and back to normothermia. After SCI injury, at different time, multiple behavioral tests, were applied to examine functional outcomes and the potential neuroprotective effects of Dex treatment (FIG. 3A). The Basso Mouse Scale (BMS) was a reliable measurement that developed to examine the locomotion in spinal cord injured mice. It has been widely used in mouse functional evaluation and serves as an indicator of recovery. This test examines different locomotor categories such as paralysis, weight support, stepping, trunk stability, and so on. The scores ranged from 9 to 0 that represent normal movement to complete paralysis, respectively. Three days prior surgery, the BMS scores of all mice in different groups were measured. Only mice with 9 score were kept. The mice with score lower than 9 were replaced to make sure mice in different groups had same baseline of locomotion. After surgery, the BMS score was repeatedly measured at 3 days, 1 week, 2 weeks, 3 weeks, 4 weeks, 5 weeks, and 6 weeks (FIG. 3B).
Contusive spinal cord injury: Adult female C57BL/6 mice (8 weeks old, 18-22 g) were purchased from The Jackson Laboratory (Bar Harbor, ME). Depending on different injury model, mice were either randomly divided into three groups: sham, SCI+heating pad, and SCI+Dex for LISA injury model, or were randomly divided into four groups: sham, SCI+heating pad, SCI+Dex, and SCI+Conventional hypothermia for Infinite Horizons (IH) model. […]

[5] = system: mice with moderate T9 contusive SCI
Text: as §2
Contusive spinal cord injury: Adult female C57BL/6 mice (8 weeks old, 18-22 g) were purchased from The Jackson Laboratory (Bar Harbor, ME). Depending on different injury model, mice were either randomly divided into three groups: sham, SCI+heating pad, and SCI+Dex for LISA injury model, or were randomly divided into four groups: sham, SCI+heating pad, SCI+Dex, and SCI+Conventional hypothermia for Infinite Horizons (IH) model. […] All animal care, handling, and surgery were performed in accordance with the Guide for the Care and Use of Laboratory Animals (National Research Council) and the Guidelines of the Institutional Animal Care and Use Committee of Indiana University School of Medicine. Spinal cord contusion was made at the thoracic (T9) vertebral level. After avertin anesthesia, animals will be placed on a thermometer-controlled heating pad for the duration of recovery (except Dex and conventional hypothermia treated group). For LISA injury model, C57/6J mice were anesthetized. A midline skin incision was made to expose the thoracolumbar spine, followed by the removal of the T9 spinous process and lamina to expose the dura mater. The displacement was set to be 0.5 mm. The T9 contusion injury was performed using a LISA impactor, where the injury level was determined using a laser sensor. After injury confirmation, the surgical area is sutured, the animal is hydrated and monitored for post-operative care, including analgesia and bladder expression. For IH model, a 1-inch skin incision was placed on the dorsal midline, musculature was retracted, and then the spinal column was visualized and placed into a stabilizer with two clamps retracting the spinous processes of the vertebrae directly surrounding the injury site. A laminectomy was performed to expose the dura.

mouse with a SCI [6] = system: mouse with a SCI
Method: Referring to FIGS. 5A-5C, to evaluate the coordination of bladder and external urethral sphincter, urodynamic recordings were performed. Bladder cystometrograph (CMG) and external urethral sphincter electromyography (EMG) were co-recorded. The peak intravesical pressure in CMG indicates the contraction of bladder detrusor. The bursting signal in external urethral sphincter EMG is a sign of relaxation of external urethral sphincter. The coordination of bladder and external urethral sphincter was reflected by the synchronization of two signals. […] In chronically injured mice, restoration of reflex external urethral sphincter relaxation correlates with the re-appearance of external urethral sphincter bursting. Therefore, external urethral sphincter bursting is a good indicator of external urethral sphincter functional recovery after SCI in mice.

mouse with a SCI [7] = conditions: 4 hours after 1 ml saline IP injection, n=5

For `Cc1cccc([C@H](C)c2cnc[nH]2)c1C` [Dex, dexmedetomidine hydrochloride], the “BMS increase rate vs. SCI” value [1] was 56%, the BMS score ([1]; SCI+Dex, n=10) was 7.13±0.48 and the hypothermia induction ([2]; Dex 1 μg/kg IP, none-injury mice) was “failed to induce hypothermia”. For the same molecule, the hypothermia induction ([2]; Dex 10 μg/kg IP, none-injury mice) was “failed to induce hypothermia”, the duration of hypothermia ([2]; Dex 50 μg/kg IP, ambient temperature 24.5° C.) was “less than one hour” and the hypothermia body temperature ([2]; Dex 50 μg/kg IP, ambient temperature 24.5° C., mild hypothermia) was 34-35 °C. For the same molecule, the duration of hypothermia ([2]; Dex 50 μg/kg one hour post Avertin (2.5%), none-injury mice) was 2 h, the duration of hypothermia ([2]; Dex 100 μg/kg IP alone, ambient temperature 24.5° C., hydrochloride) was 2 h and 3 h and the hypothermia body temperature ([2]; Dex 100 μg/kg IP, mild to moderate hypothermia) was 30-32 °C. The duration of hypothermia ([2]; Dex 100 μg/kg one hour post Avertin (2.5%), none-injury mice) was 6 h, the “death of treated mice” value ([2]; Dex 200 μg/kg IP, due to urethral obstructions) was “about 40%” and the hypothermia body temperature ([2]; Dex 200 μg/kg IP, more severe hypothermia) was “lower than 28 °C”. For the same molecule, the “induced hypothermia body temperature” value ([2]; in one hour at ambient temperatures 24-25° C., modest hypothermia) was 30-32 °C, the urination volume (mouse with a SCI [3]; 24 hours) was 0.48 ± 0.22 mL and the residual urine volume (mouse with a SCI [3]) was 0.4 ± 0.22 mL. The “time at which normal body temperature was regained” value ([4]; Dex 100 μg/kg 1 hour after T9 SCI) was 24 hr post trauma, the duration of hypothermia ([4]; Dex 100 μg/kg one hour after T9 SCI (LISA)) was “up to 16 hours” and the “time to spontaneously rewarm to normal temperature” value ([4]; Dex 100 μg/kg one hour after T9 SCI, after the hypothermia period) was 5 to 6 h. The rewarming rate ([4]; Dex 100 μg/kg one hour after T9 SCI, spontaneous rewarming, hydrochloride) was under 1.0 °C per hour, the “locomotion recovery (BMS) compared to none-treatment SCI group” value ([5]; FIG. 3B, female, n=10) was “better locomotion recovery” and the “improvement of locomotor function in BMS test” value ([5]; compared with about 25% for hypothermia alone (meta-analysis)) was 70%. The “BMS score compared to SCI only group” value ([5]; day 3 post-injury, Dex 100 μg/kg IP one hour after injury) was “did not show the significant difference”, the “average BMS score” value ([5]; one week after surgery, Dex 100 μg/kg IP) was about 5 and the “increase of BMS score compared to SCI only group” value ([5]; week 6 (end of test)) was “over 65%”. The BMS score ([5]; week 6 (end of test), Dex 100 μg/kg IP) was “about 7.8”, the voiding efficiency (mouse with a SCI [6]; n=5, p<0.05 vs. SCI group) was 15.9±6.6% and the bladder capacity (mouse with a SCI [6]; p<0.05 vs. SCI group) was 0.56 ± 0.31 mL. The “synchronization of bladder CMG and external urethral sphincter EMG signals” value (mouse with a SCI [6]; vs. SCI) was “enhanced the synchronization”, the frequency of urination (mouse with a SCI [7]) was 6±0.82 and the urine volume (mouse with a SCI [7]) was 0.3 ± 0.04 mL.
